Test results as given in patent publication US4684637A, “Method of decreasing rate of heme metabolism” (The Rockefeller University, priority 1985, dated 1987).
Several values for one entry are separate records, joined by “and”; a condition that tells them apart may be missing. Equal values may be shown once.

Experiments:
Assay type in all cases: in vivo, rat
heme oxygenase [1] = assay: heme oxygenase activity in liver, kidney and spleen of neonatal rats treated with Cr-protoporphyrin
Method: (§1) The treated animals and the controls were assayed for heme oxygenase activity and bilirubin concentration. Since heme oxygenase is an essential component in the catabolism of heme, an increase in heme oxygenase activity is indicative of an increase in the rate of heme catabolism. Heme oxygenase was assyed as described by Maines and Kappas in J. Biol. Chem., 253, 2321-2326 (1978). Total bilirubin in serum was estimated by the method of Roth, Clin. Chem. Acta., 17, 487-492 (1967).
(§2) Similar studies were conducted with neonatal rats treated subcutaneously with 2 and 10 micromoles per kilogram of Cr-protoporphyrin soon after birth. Various organs were analyzed for heme oxygenase activity and bilirubin concentration. The results were compared with controls each of which were treated subcutaneously with 0.1 ml of saline.
The results for heme oxygenase activity in liver, kidney and spleen in nanamoles heme oxygenase per milligram microsomal protein per hour are shown below.

serum bilirubin [2] = assay: serum bilirubin in neonatal rats treated with Cr-protoporphyrin
Method: as §1, §2

heme oxygenase [3] = assay: hepatic heme oxygenase activity in neonatal rats treated with Sn-protoporphyrin
Method: (§3) To determine the efficacy of Sn-protoporphyrin for controlling the rate of heme metabolism, neonatal rats were injected subcutaneously at birth, and at 12, 24, 48 and 72 hours postnatally with 0.1 ml solutions of Sn-protoporphyrin. To prepare the solutions for parenteral injection, the material was taken up in a small volume of 0.2N sodium hydroxide, adjusted to pH 7.4 with one normal hydrochloric acid and made up to final volume with 0.9% sodium chloride. The compositions as prepared and used contained sufficient Sn-protoporphyrin to provide about 100 μmol/Kg body weight in each 0.1 ml injection. Control neonates received an equivalent volume of saline at each time point. Groups of neonates (6-30 animals per group) were sacrificed at selected time intervals.
as §1

serum bilirubin [4] = assay: total serum bilirubin in neonatal rats treated with Sn-protoporphyrin; conditions: about 100 μmol/Kg s.c. per injection
Method: as §3, §1

heme oxygenase [5] = assay: heme oxygenase activity (bilirubin production) in liver and kidney microsomes of adult rats treated with Sn-protoporphyrin; conditions: 50 μmol/Kg s.c.
Method: Studies were carried out with adult rats treated with Sn-protoporphyrin to determine the effect on heme oxygenase activity and bilirubin production. Three rats weighing about 230 grams each were injected subcutaneously with 50 μmol/Kg of Sn-protoporphyrin in isotonic saline at pH 8. Three controls were similiary treated with isotonic saline. The rats were sacrificed sixteen hours after treatment. The microsomal protein of the separate livers and of the three combined kidneys was estimated and heme oxygenase activity determined according to the method of Maines and Kappas. This procedure measures the heme oxygenase activity by determining the amount of bilirubin produced. The concentration unit for bilirubin is nanamoles bilirubin formed per milligram protein per hour.

[6] = neonatal rats, about 100 μmol/Kg s.c. per injection

For `C=CC1=C(C)c2cc3[n-]c(cc4[n-]c(cc5nc(cc1n2)C(C)=C5C=C)c(C)c4CCC(=O)[O-])c(CCC(=O)[O-])c3C.[Cr+3].[H+]` [Cr-protoporphyrin], the “effect on heme oxygenase” value (heme oxygenase [1]; 2 and 10 μmol/Kg s.c., liver, kidney, spleen) was “immediate decrease in heme oxygenase”, the heme oxygenase activity (heme oxygenase [1]; kidney, 2 μmol/Kg s.c. soon after birth, day 2) was 0.36 nanamoles heme oxygenase per m and the heme oxygenase activity (heme oxygenase [1]; kidney, 2 μmol/Kg s.c. soon after birth, day 3) was 0.72 nanamoles heme oxygenase per m. For the same compound, the heme oxygenase activity (heme oxygenase [1]; kidney, 2 μmol/Kg s.c. soon after birth, day 5) was 0.94 nanamoles heme oxygenase per m, the heme oxygenase activity (heme oxygenase [1]; kidney, 2 μmol/Kg s.c. soon after birth, day 7) was 1.17 nanamoles heme oxygenase per m and the heme oxygenase activity (heme oxygenase [1]; kidney, 2 μmol/Kg s.c. soon after birth, day 10) was 1.67 nanamoles heme oxygenase per m. The heme oxygenase activity (heme oxygenase [1]; kidney, 2 μmol/Kg s.c. soon after birth, day 14) was 0.74 nanamoles heme oxygenase per m, the heme oxygenase activity (heme oxygenase [1]; kidney, 2 μmol/Kg s.c. soon after birth, day 21) was 0.61 nanamoles heme oxygenase per m and the heme oxygenase activity (heme oxygenase [1]; kidney, 2 μmol/Kg s.c. soon after birth, day 35) was 0.58 nanamoles heme oxygenase per m. For the same compound, the heme oxygenase activity (heme oxygenase [1]; kidney, 10 μmol/Kg s.c. soon after birth, day 2) was 0 nanamoles heme oxygenase per m, the heme oxygenase activity (heme oxygenase [1]; kidney, 10 μmol/Kg s.c. soon after birth, day 3) was 0.42 nanamoles heme oxygenase per m and the heme oxygenase activity (heme oxygenase [1]; kidney, 10 μmol/Kg s.c. soon after birth, day 5) was 0.59 nanamoles heme oxygenase per m. For the same compound, the heme oxygenase activity (heme oxygenase [1]; kidney, 10 μmol/Kg s.c. soon after birth, day 7) was 0.48 nanamoles heme oxygenase per m, the heme oxygenase activity (heme oxygenase [1]; kidney, 10 μmol/Kg s.c. soon after birth, day 10) was 0.34 nanamoles heme oxygenase per m and the heme oxygenase activity (heme oxygenase [1]; kidney, 10 μmol/Kg s.c. soon after birth, day 14) was 0.41 nanamoles heme oxygenase per m. For the same compound, the heme oxygenase activity (heme oxygenase [1]; kidney, 10 μmol/Kg s.c. soon after birth, day 21) was 0.16 nanamoles heme oxygenase per m, the heme oxygenase activity (heme oxygenase [1]; kidney, 10 μmol/Kg s.c. soon after birth, day 35) was 0.45 nanamoles heme oxygenase per m and the heme oxygenase activity (heme oxygenase [1]; liver, 2 μmol/Kg s.c. soon after birth, day 2) was 5.81 nanamoles heme oxygenase per m. The heme oxygenase activity (heme oxygenase [1]; liver, 2 μmol/Kg s.c. soon after birth, day 3) was 5.60 nanamoles heme oxygenase per m, the heme oxygenase activity (heme oxygenase [1]; liver, 2 μmol/Kg s.c. soon after birth, day 5) was 5.36 nanamoles heme oxygenase per m and the heme oxygenase activity (heme oxygenase [1]; liver, 2 μmol/Kg s.c. soon after birth, day 7) was 4.42 nanamoles heme oxygenase per m. The heme oxygenase activity (heme oxygenase [1]; liver, 2 μmol/Kg s.c. soon after birth, day 10) was 3.62 nanamoles heme oxygenase per m, the heme oxygenase activity (heme oxygenase [1]; liver, 2 μmol/Kg s.c. soon after birth, day 14) was 2.24 nanamoles heme oxygenase per m and the heme oxygenase activity (heme oxygenase [1]; liver, 2 μmol/Kg s.c. soon after birth, day 21) was 1.94 nanamoles heme oxygenase per m. For the same compound, the heme oxygenase activity (heme oxygenase [1]; liver, 2 μmol/Kg s.c. soon after birth, day 35) was 2.38 nanamoles heme oxygenase per m, the heme oxygenase activity (heme oxygenase [1]; liver, 10 μmol/Kg s.c. soon after birth, day 2) was 1.67 nanamoles heme oxygenase per m and the heme oxygenase activity (heme oxygenase [1]; liver, 10 μmol/Kg s.c. soon after birth, day 3) was 1.43 nanamoles heme oxygenase per m. The heme oxygenase activity (heme oxygenase [1]; liver, 10 μmol/Kg s.c. soon after birth, day 5) was 1.22 nanamoles heme oxygenase per m, the heme oxygenase activity (heme oxygenase [1]; liver, 10 μmol/Kg s.c. soon after birth, day 7) was 0.85 nanamoles heme oxygenase per m and the heme oxygenase activity (heme oxygenase [1]; liver, 10 μmol/Kg s.c. soon after birth, day 10) was 0.85 nanamoles heme oxygenase per m. The heme oxygenase activity (heme oxygenase [1]; liver, 10 μmol/Kg s.c. soon after birth, day 14) was 0.78 nanamoles heme oxygenase per m, the heme oxygenase activity (heme oxygenase [1]; liver, 10 μmol/Kg s.c. soon after birth, day 21) was 0.56 nanamoles heme oxygenase per m and the heme oxygenase activity (heme oxygenase [1]; liver, 10 μmol/Kg s.c. soon after birth, day 35) was 1.23 nanamoles heme oxygenase per m. For the same compound, the heme oxygenase activity (heme oxygenase [1]; spleen, 2 μmol/Kg s.c. soon after birth, day 2) was 7.33 nanamoles heme oxygenase per m, the heme oxygenase activity (heme oxygenase [1]; spleen, 2 μmol/Kg s.c. soon after birth, day 3) was 11.13 nanamoles heme oxygenase per m and the heme oxygenase activity (heme oxygenase [1]; spleen, 2 μmol/Kg s.c. soon after birth, day 5) was 15.13 nanamoles heme oxygenase per m. For the same compound, the heme oxygenase activity (heme oxygenase [1]; spleen, 2 μmol/Kg s.c. soon after birth, day 7) was 11.18 nanamoles heme oxygenase per m, the heme oxygenase activity (heme oxygenase [1]; spleen, 2 μmol/Kg s.c. soon after birth, day 10) was 13.87 nanamoles heme oxygenase per m and the heme oxygenase activity (heme oxygenase [1]; spleen, 2 μmol/Kg s.c. soon after birth, day 14) was 16.62 nanamoles heme oxygenase per m. For the same compound, the heme oxygenase activity (heme oxygenase [1]; spleen, 2 μmol/Kg s.c. soon after birth, day 21) was 10.28 nanamoles heme oxygenase per m, the heme oxygenase activity (heme oxygenase [1]; spleen, 2 μmol/Kg s.c. soon after birth, day 35) was 15.55 nanamoles heme oxygenase per m and the heme oxygenase activity (heme oxygenase [1]; spleen, 10 μmol/Kg s.c. soon after birth, day 2) was 3.97 nanamoles heme oxygenase per m. For the same compound, the heme oxygenase activity (heme oxygenase [1]; spleen, 10 μmol/Kg s.c. soon after birth, day 3) was 4.62 nanamoles heme oxygenase per m, the heme oxygenase activity (heme oxygenase [1]; spleen, 10 μmol/Kg s.c. soon after birth, day 5) was 2.76 nanamoles heme oxygenase per m and the heme oxygenase activity (heme oxygenase [1]; spleen, 10 μmol/Kg s.c. soon after birth, day 7) was 6.19 nanamoles heme oxygenase per m. The heme oxygenase activity (heme oxygenase [1]; spleen, 10 μmol/Kg s.c. soon after birth, day 10) was 9.53 nanamoles heme oxygenase per m, the heme oxygenase activity (heme oxygenase [1]; spleen, 10 μmol/Kg s.c. soon after birth, day 14) was 10.34 nanamoles heme oxygenase per m and the heme oxygenase activity (heme oxygenase [1]; spleen, 10 μmol/Kg s.c. soon after birth, day 21) was 8.06 nanamoles heme oxygenase per m. The heme oxygenase activity (heme oxygenase [1]; spleen, 10 μmol/Kg s.c. soon after birth, day 35) was 13.72 nanamoles heme oxygenase per m, the “Serum Bilirubin” value (serum bilirubin [2]; 2 μmol/Kg s.c. soon after birth, day 2) was 0.39 milligrams per deciliter and the “Serum Bilirubin” value (serum bilirubin [2]; 2 μmol/Kg s.c. soon after birth, day 3) was 0.33 milligrams per deciliter. The “Serum Bilirubin” value (serum bilirubin [2]; 2 μmol/Kg s.c. soon after birth, day 5) was 0.28 milligrams per deciliter, the “Serum Bilirubin” value (serum bilirubin [2]; 2 μmol/Kg s.c. soon after birth, day 7) was 0.32 milligrams per deciliter and the “Serum Bilirubin” value (serum bilirubin [2]; 2 μmol/Kg s.c. soon after birth, day 10) was 0.33 milligrams per deciliter. The “Serum Bilirubin” value (serum bilirubin [2]; 2 μmol/Kg s.c. soon after birth, day 14) was 0.40 milligrams per deciliter, the “Serum Bilirubin” value (serum bilirubin [2]; 10 μmol/Kg s.c. soon after birth, day 2) was 0.43 milligrams per deciliter and the “Serum Bilirubin” value (serum bilirubin [2]; 10 μmol/Kg s.c. soon after birth, day 3) was 0.33 milligrams per deciliter. The “Serum Bilirubin” value (serum bilirubin [2]; 10 μmol/Kg s.c. soon after birth, day 5) was 0.24 milligrams per deciliter, the “Serum Bilirubin” value (serum bilirubin [2]; 10 μmol/Kg s.c. soon after birth, day 7) was 0.30 milligrams per deciliter and the “Serum Bilirubin” value (serum bilirubin [2]; 10 μmol/Kg s.c. soon after birth, day 10) was 0.33 milligrams per deciliter. For the same compound, the “Serum Bilirubin” value (serum bilirubin [2]; 10 μmol/Kg s.c. soon after birth, day 14) was 0.28 milligrams per deciliter.
`C=Cc1c2[n-]c(c1C)/C=c1\[n-]/c(c(C)c1C=C)=C\c1[n-]c(c(CCC(=O)O)c1C)C=c1[n-]/c(c(C)c1CCC(=O)O)=C\2.[Sn+4]` [Sn-protoporphyrin, tin protoporphyrin IX] was tested, and the “activity compared with Cr-protoporphyrin” value (heme oxygenase [3]; decreasing rate of heme metabolism) was “more active”, the “effect on normal postnatal increase in hepatic heme oxygenase activity” value (heme oxygenase [3]; neonatal rats, about 100 μmol/Kg s.c. at birth and 12, 24, 48, 72 hours, six week study) was “completely prevented the normal marked increase in hepatic heme oxygenase activity after birth” and the “day at which hepatic heme oxygenase activity attained normal control levels” value (heme oxygenase [3]; [6]) was roughly 42 days. For the same compound, the “time hepatic heme oxygenase activity remained well below control levels” value (heme oxygenase [3]; [6]) was “about three”, the “hepatic heme oxygenase activity relative to controls” value (heme oxygenase [3]; neonatal rats, about 100 μmol/Kg s.c. per injection, 1 day) was “less than half the levels of the controls” and the “day until which low bilirubin concentration continued” value (serum bilirubin [4]) was “fourth”. For the same compound, the “effect on serum bilirubin levels” value (serum bilirubin [4]; 42 day study) was “immediate and significant lowering of serum bilirubin levels”, the “effect on bilirubin production and heme oxygenase activity” value (heme oxygenase [5]) was “extremely effective” and the “heme oxygenase activity (bilirubin produced), LIVER” value (heme oxygenase [5]; sacrificed sixteen hours after treatment, separate livers (Experiment 1-3 = individual rats)) was 0.95 nanamoles bilirubin formed per and 1.53 nanamoles bilirubin formed per. For the same compound, the “heme oxygenase activity (bilirubin produced), KIDNEY (COMBINED)” value (heme oxygenase [5]; sacrificed sixteen hours after treatment, three combined kidneys) was 0.055 nanamoles bilirubin formed per.
